Experiments:
rabbit mGPa [1] = molecular target: T1, rabbit mGPa (Oryctolagus cuniculus, UniProt P00489); assay: In vitro glycogen phosphorylase inhibition assay (direction of glycogen synthesis, colorimetric phosphate); assay type: biochemical; conditions: for inhibition at 50 µM: at 50 μM (highest concentration tested), read-out: GPa inhibitory activity (%)
T1 construct: purchased Creative Enzymes
T1 sequence (P00489 2-843 limits assumed): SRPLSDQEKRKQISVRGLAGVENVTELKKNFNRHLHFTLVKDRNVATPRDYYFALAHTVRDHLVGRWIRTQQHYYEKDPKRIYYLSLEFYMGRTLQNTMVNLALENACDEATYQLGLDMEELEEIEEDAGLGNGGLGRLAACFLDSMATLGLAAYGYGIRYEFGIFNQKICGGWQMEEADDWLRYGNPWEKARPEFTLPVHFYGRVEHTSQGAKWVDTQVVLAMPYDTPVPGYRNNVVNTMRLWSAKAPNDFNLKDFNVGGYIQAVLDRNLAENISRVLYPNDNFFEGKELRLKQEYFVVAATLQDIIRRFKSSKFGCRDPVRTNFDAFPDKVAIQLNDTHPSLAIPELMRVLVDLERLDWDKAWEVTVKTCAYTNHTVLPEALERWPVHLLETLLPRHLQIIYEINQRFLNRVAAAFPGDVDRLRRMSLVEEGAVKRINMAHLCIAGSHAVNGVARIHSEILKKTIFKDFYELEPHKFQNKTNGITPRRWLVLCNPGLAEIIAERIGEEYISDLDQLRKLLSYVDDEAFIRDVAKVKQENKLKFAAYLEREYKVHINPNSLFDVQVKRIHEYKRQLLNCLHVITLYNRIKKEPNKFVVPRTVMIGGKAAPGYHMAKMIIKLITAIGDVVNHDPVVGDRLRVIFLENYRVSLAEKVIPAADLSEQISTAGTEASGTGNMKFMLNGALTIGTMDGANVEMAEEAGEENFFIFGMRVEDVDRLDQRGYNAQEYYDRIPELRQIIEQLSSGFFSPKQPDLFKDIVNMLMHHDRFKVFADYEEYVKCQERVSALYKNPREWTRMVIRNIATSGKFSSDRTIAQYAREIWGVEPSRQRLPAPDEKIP
Protocol: The GP activity was measured using a previously optimized and validated method. In each assay, GP activity was measured by the direction of glycogen synthesis, which involved monitoring the colorimetric determination of inorganic phosphate deriving from glucose 1-phosphate. […] The enzymatic reaction was then started with the addition of a 50 mM HEPES buffer solution, with a pH of 7.2, containing 100 mM KCl, 2.5 mM MgCl2, 0.25 mM glucose 1-phosphate, and 0.25 mg/mL glycogen incubated for 30 min at 37 °C. After this incubation time, the reagent for colorimetric phosphate quantitation, BIOMOL® Green, was added to the reaction mixture. The reaction was monitored in a microplate reader (Synergy HT, BioTek Instruments, Winooski, VT, USA) at 620 nm.

rabbit mGPa [2] = molecular target: T1, rabbit mGPa; assay: In vitro effect of glucose on inhibitor potency (GPa inhibition with 0, 5, 10 mM glucose); assay type: biochemical; conditions: mean ± SEM, read-out: GPa IC50 value
Protocol: The method was performed as described in Section 2.2, with slight modifications. […] The enzymatic reaction was then started with the addition of a 50 mM HEPES buffer solution with a pH of 7.2 containing 100 mM KCl, 2.5 mM MgCl2, 0.25 mM glucose 1-phosphate, and 0.25 mg/mL glycogen. This buffer was used without glucose, or it was enriched with 5 and 10 mM of glucose and was incubated for 30 min at 37 °C in the reaction mixture. After this incubation time, BIOMOL® Green was added, and the reaction was monitored in a microplate reader (Synergy HT, BioTek Instruments, Winooski, VT, USA) at 620 nm.

[3] = no glucose, mean ± SEM, read-out: GPa IC50 value
[4] = Table S2 summary of activities, read-out: IC50

CCCCCCCCCCCCn1cc(/C=C/c2ccccc2)c(-c2ccccc2O)n1 [Compound 6]
inhibition at 50 µM (rabbit mGPa [1]; mean ± SEM): < 30%

O=c1cc(/C=C/c2ccc(O)c(O)c2)oc2cc(O)cc(O)c12 [Compound 23]
IC50 (rabbit mGPa [1]; [3]): 31.7 ± 2.4 µM

O=c1cc(/C=C/C=C/c2ccc(O)c(O)c2)oc2cccc(O)c12 [Compound 31]
inhibition at 50 µM (rabbit mGPa [1]; mean ± SEM): < 30%

CCCCCCCCCCn1cc(/C=C/c2ccccc2)c(-c2ccccc2O)n1 [Compound 5]
inhibition at 50 µM (rabbit mGPa [1]; mean ± SEM): < 30%

O=c1cc(/C=C/c2ccc(O)cc2)oc2cc(O)cc(O)c12 [Compound 22]
inhibition at 50 µM (rabbit mGPa [1]; mean ± SEM): < 50%

COc1ccc(-c2n[nH]cc2/C=C\c2ccc([N+](=O)[O-])cc2)c(O)c1 [Compound 9]
inhibition at 50 µM (rabbit mGPa [1]; mean ± SEM): < 30%

COc1ccc(/C=C/c2cc(=O)c3c(OC)cccc3o2)cc1OC [Compound 29]
inhibition at 50 µM (rabbit mGPa [1]; mean ± SEM): < 30%

O=c1c(O)c(-c2ccc(O)c(O)c2)oc2cc(O)cc(O)c12 [Compound 45, Quercetin]
IC50 (rabbit mGPa [1]; [4]): > 50 µM | inhibition at 50 µM (rabbit mGPa [1]; mean ± SEM): < 30%

O=c1c(O)c(-c2ccccc2)oc2cc(O)cc(O)c12 [Compound 44, Galangin]
inhibition at 50 µM (rabbit mGPa [1]; mean ± SEM): < 30%

O=c1cc(-c2ccc(O)cc2)oc2cc(O)cc(O)c12 [Compound 42, Apigenin]
inhibition at 50 µM (rabbit mGPa [1]; mean ± SEM): 35.7 ± 2.1%

COc1cc(OC)c2c(=O)cc(/C=C/c3ccc(O)c(O)c3)oc2c1 [Compound 25]
inhibition at 50 µM (rabbit mGPa [1]; mean ± SEM): < 30%

CCCCCCCCCCCCn1cc(/C=C/c2ccc(Cl)cc2)c(-c2ccccc2O)n1 [Compound 7]
inhibition at 50 µM (rabbit mGPa [1]; mean ± SEM): < 30%

O=c1cc(/C=C/C=C/c2ccc(O)c(O)c2)oc2cc(O)ccc12 [Compound 32]
IC50 (rabbit mGPa [1]; [3]): 16.7 ± 1.5 µM | IC50 (rabbit mGPa [2]; 0 mM of glucose): 16.7 ± 1.5 µM | IC50 (rabbit mGPa [2]; 5 mM of glucose): 13.4 ± 1.6 µM | IC50 (rabbit mGPa [2]; 10 mM of glucose): 10.8 ± 1.2 µM

COc1ccc(/C=C/c2cc(=O)c3ccc(OC)c(OC)c3o2)cc1OC [Compound 27]
inhibition at 50 µM (rabbit mGPa [1]; mean ± SEM): < 30%

O=c1cc(/C=C/c2ccc(O)cc2)oc2cc(O)ccc12 [Compound 17]
inhibition at 50 µM (rabbit mGPa [1]; mean ± SEM): < 30%

COc1cc(OC)c2c(=O)cc(/C=C/c3ccc(OC)c(OC)c3)oc2c1 [Compound 26]
inhibition at 50 µM (rabbit mGPa [1]; mean ± SEM): 42.2 ± 5.6%

O=c1cc(/C=C/c2ccccc2)oc2cc(O)cc(O)c12 [Compound 21]
inhibition at 50 µM (rabbit mGPa [1]; mean ± SEM): < 50%

O=c1cc(-c2ccccc2)oc2cc(O)ccc12 [Compound 36]
inhibition at 50 µM (rabbit mGPa [1]; mean ± SEM): < 30%

Oc1ccccc1-c1n[nH]cc1/C=C/c1ccccc1 [Compound 1]
inhibition at 50 µM (rabbit mGPa [1]; mean ± SEM): < 30%

Oc1ccccc1-c1cc(/C=C/c2ccc(Cl)cc2)[nH]n1 [Compound 11]
inhibition at 50 µM (rabbit mGPa [1]; mean ± SEM): < 30%

O=c1cc(/C=C/c2ccc(O)c(O)c2)oc2ccccc12 [Compound 18]
inhibition at 50 µM (rabbit mGPa [1]; mean ± SEM): < 30%

O=C(O)[C@H]1O[C@@H](Oc2cc3oc(-c4ccccc4)cc(=O)c3c(O)c2O)[C@H](O)[C@@H](O)[C@@H]1O [Compound 49, Baicalin]
IC50 (rabbit mGPa [1]; [3]): 20.5 ± 2.5 µM

Oc1ccccc1-c1n[nH]cc1/C=C/c1ccc(Cl)cc1 [Compound 2]
inhibition at 50 µM (rabbit mGPa [1]; mean ± SEM): < 30%

COc1cc2oc(-c3ccccc3)cc(=O)c2c(OC)c1OC [Compound 52, Baicalein-5,6,7-trimethylether]
inhibition at 50 µM (rabbit mGPa [1]; mean ± SEM): < 30%

O=c1cc(/C=C/c2ccc(O)c(O)c2)oc2cc(O)ccc12 [Compound 19]
inhibition at 50 µM (rabbit mGPa [1]; mean ± SEM): < 30%

O=c1cc(-c2ccc(O)c(O)c2)oc2cc(O)ccc12 [Compound 40]
IC50 (rabbit mGPa [1]; [4]): > 50 µM | inhibition at 50 µM (rabbit mGPa [1]; mean ± SEM): < 30%

Source: publication PMC8781192, “An In Silico and an In Vitro Inhibition Analysis of Glycogen Phosphorylase by Flavonoids, Styrylchromones, and Pyrazoles” (Nutrients, 2022)
